Assay [1] has as its target T1, mOR-I7 (Mus musculus, UniProt Q9QWU6).
T1 construct: expressed in transfected cells; host or cells: HEK 293T
T1 sequence (Q9QWU6 1-327): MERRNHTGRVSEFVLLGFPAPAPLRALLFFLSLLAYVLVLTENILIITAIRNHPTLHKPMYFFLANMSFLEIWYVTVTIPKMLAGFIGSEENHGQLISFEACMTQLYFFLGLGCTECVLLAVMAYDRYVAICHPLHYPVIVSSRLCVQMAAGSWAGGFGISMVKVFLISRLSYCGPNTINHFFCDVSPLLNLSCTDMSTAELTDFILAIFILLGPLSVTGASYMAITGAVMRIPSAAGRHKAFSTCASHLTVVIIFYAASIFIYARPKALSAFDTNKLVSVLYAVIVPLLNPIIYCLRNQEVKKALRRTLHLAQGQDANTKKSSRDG
The assay is described as follows: cAMP level immunoassay (TROPIX) in the novel assay on HEK 293T overexpressing mOR-I7. The note with it: BSA solution incubated with 16 μl of 1 M odorant; 20 minutes incubation. The assay is classed as cell-based. Here is the method:
Similarly to the first step of the fluorescence-based functional assay described above, BP solutions including SA, OBP and/or olfactory mucus (see concentration in the text) were incubated in the presence of odorant in a sealed flask for 16 hours at 4° C. (FIG. 3A). Such odorant-BP complexes were then applied to cultured-cell for 20 minutes at 37° C. cAMP level was then measured using the Tropix kit according to the manufacturer procedures (Applied Biosystem).
As depicted in FIG. 1, binding of odorant molecule to olfactory receptor triggers a cascade of molecular events. In the most commonly accepted pathway, the first second messenger is cAMP synthesized by adenylate cyclase type III. Therefore, a mean to test olfactory receptor activation is to assess variation of cellular cAMP pool after olfactory receptor activation. It is noteworthy that such assay could be performed in parallel to calcium flux assay described above to validate hits obtained during a screening.
Specificity of the novel cell based olfactory functional assay according to the present invention was tested following mOR-I7 activation after injection of these three odorants and two non related odorant, vanilline and piperonyl isobutyrate. Olfactory receptor activation was detected by cellular cAMP pool immunoassay. A solution of BSA was incubated overnight at 4° C.
As discussed above (FIG. 1), activation of olfactory receptor can also be followed through cAMP synthesis. […] Results are expressed as percent of response observed after incubation with 100 μM forskolin, an activator of adenylate cyclases. […] Scheme of the odorant molecules are depicted in FIG. 7E.
Background: Changes in cAMP serve as a functional read-out for many G protein-coupled receptors.

Assay [2] concerns the target T1, mOR-I7. Put plainly: Novel olfactory functional assay (CCBSA), microplate calcium flux (Fluo4, FDSS) on HEK 293T overexpressing mOR-I7. The assay is classed as cell-based. The conditions noted are these: for hits / potential ligands of mOR-I7 through the 4 screenings / ligands of mOR-I7 in two independent calcium flux screenings of 30 odorants: BSA as carrier; for hits / potential ligands of mOR-I7 through the 4 screenings: calcium flux and cAMP screenings together; for ligands of mOR-I7 in two independent calcium flux screenings of 30 odorants: standardized to 100 μM ATP; for hit / potential ligand of mOR-I7 in screening of 30 odorants: carrier fraction 4 (bOBP and BSA) incubated with 16 μl of 1M odorant, ratio mOR-I7 on Wt, standardized to 1 mM ATP. Here is the method:
(§1) A solution of BP including SA, OBP and/or olfactory mucus (see concentration in the text) was incubated in the presence of odorant in a sealed flask for 16 hours at 4° C. (FIG. 3A). Such incubated-BP solution was then used as tested complex on olfactory receptor-expressing cells. Prior to incubation with such complex, cells were incubated for 1 hour with 4 μM Fluo4-AM (Molecular Probe) in the presence of 1 mM probenecid, and then rinsed twice with Fluo4-AM free HBSS buffer. After injection of odorant-BP complex on OR expressing cells, calcium flux was followed by measuring fluorescence at 520 nm ([…]) on FDSS, a plate reader from Hamamatsu Photonics K.K. (Japan) at 25° C.
In an attempt to be closer to physiological process of olfaction and thereof to increase specificity and sensitivity of the cell-based assay described above, a novel olfactory functional assay was developed. Most of the time, mammalian smells volatile odorant molecules. However in the cell-based assay described above as in most cell-based assays, odorant molecules were injected into aqueous buffer. Such injection may lead to formation of micelles that can alter efficacy and specificity of ligands. Therefore a cell-based assay was developed focusing an a better solubilization of odorants. In summary, in a sealed flask, bovine olfactory mucus was incubated in the presence of an odorant (FIG. 3A). It was hereby tested if an odorant would be trapped and solubilized in that fluid. Thereafter, such solubilized odorant was injected onto cultured-cells overexpressing an olfactory receptor. Activation of this receptor could then be followed by conventional assay including fluorescent (FIGS. 3 B and C) and luminescent calcium assays.
For this novel assay, mOR-I7 activation was assessed by octanal. A constant volume of olfactory mucus was incubated in the presence of increasing amount of octanal ranging from 0 to 16 μl of a solution of 1M octanal. After 16 hours incubation at 4° C., bovine olfactory mucus was injected on HEK 293T overexpressing mOR-I7. Calcium flux was followed with Fluo4 on FDSS, a plate reader from Hamamatsu Photonics K.K. (Japan).
Capacity of fraction 4 to fulfil the role of odorant solubilizator was assessed in the newly proposed assay. Screening of 30 odorant molecules (FIG. 5A) was performed on HEK 293T wild type (FIG. 5C) or overexpressing mOR-I7 (FIG. 5B). Fraction 4 was incubated overnight at 4° C. […] These odorants led to at least one fold more activation of HEK 293T overexpressing mOR-I7 than the wild type counterpart. They can be classified into two groups. One group (FIG. 5 E (a) to (e)) gathers molecules that fit the olfactophore 1 depicted in FIG. 5 E (j). They are schematically made of 2 electronegative poles distanced by 6 carbons. They all contain a 6-8 carbon chain ended by an electronegative group as depicted by olfactophore 2 represented in FIG. 5 E (k).
However this fraction 4 contained two major proteins, bOBP and BSA. Thus the results of said Example could in this approach not rule out any implication of BSA into fraction 4 properties. Therefore the capacity of BSA to solubilize and thereof to enhance the efficacy of odorants in the novel cell based olfactory functional assay as described by the present invention has been tested. To be as close as possible to BSA concentration observed in fraction 4. BSA concentration was set up at 5×10^−6 M for the following experiments (marked by an arrow on FIG. 6 G). Fraction 4 and a solution of fatty acid-free BSA were incubated at 4° C. for 16 hours in the presence of increasing volume of 1M octanal. So-incubated solutions were then applied onto HEK 293T wt or overexpressing mOR-I7. Calcium-flux was followed on a plate reader (Hamamatsu Photonics K.K., Japan) with fluo4 as fluorescent dye (FIG. 6 A to F). […] Such phenomenon is usually observed in such fluorescence assay when increasing ligand concentrations are injected. […]
Background: Calcium flux is commonly read through the fluorescence of an indicator in the cells.

The target in assay [3] is T1, mOR-I7. The note with it: literature (references); cited from earlier work.
In the next assay the test system is hORL-424. Put plainly: Fluorescent calcium flux assay on HEK 293T overexpressing hORL-424, odorant in assay buffer with or without bovine olfactory mucus. The assay is classed as cell-based, human. Here is the method:
FIG. 2: Bovine olfactory mucus enhances hORL-424 activation by citronellal. (A and B) Calcium measurement was performed after activation of hORL-424 with citronellal in the presence of different amount of bovine olfactory mucus. 0 to 10 μl of mucus (0 to 10 μg of total protein) have been added to assay buffer. Calcium flux has been followed on FDSS (Hamamatsu Photonics K.K. plate reader, Japan) using Fluo4 as fluorescent dye. Histograms represent fluorescent signal observed in the presence or in the absence of 10 μl of bovine olfactory mucus. (C) Concentration response curve of HEK 293T overexpressing hORL-424 treated with citronellal. Gray boxes represent values obtained in the presence of bovine olfactory mucus. Calcium flux measurements have been performed on FDSS (Hamamatsu Photonics K.K. plate reader, Japan). (D and E) Traces obtained during single cell calcium imaging after addition of 500 μM octanal on HEK 293T overexpressing mOR-I7 in the absence (D) or in the presence of 10 μl of bovine olfactory mucus (E). Fura2 was used as fluorescent dye. Results are expressed as F340/F380 ratiometric measurement.
as §1
hORL-424, a human olfactory receptor, was overexpressed in HEK 293T, a […] (Hunter). […]

For `COc1cc(C=O)ccc1O` [Vanilline], the “mOR-I7 activation by cellular cAMP pool” value on mOR-I7 [1] is “did not lead to cAMP synthesis”.

For `CCCCCCCCO` [octanol], at mOR-I7 [2], the “hits / potential ligands of mOR-I7 through the 4 screenings” value (“hits / potential ligands” for short) is listed as “hits”, the “ligands of mOR-I7 in two independent calcium flux screenings of 30 odorants” value is given as “consistent” and the “hit / potential ligand of mOR-I7 in screening of 30 odorants” value (shortened to “hit / potential ligand of mOR-I7”) is recorded as “potential ligands of mOR-I7”. The “hit / potential ligand of mOR-I7” value on mOR-I7 [2] (listed as 1-octanol) is “hits”.

Take `COc1cc(CCC(C)=O)ccc1O` [Vanillyl acetone]: the “hit / potential ligand of mOR-I7” value on mOR-I7 [2] is “potential ligands of mOR-I7 and hits”.

Consider `CC/C=C\CCCCC=O` [cis-6-nonenal], for which the “hit / potential ligand of mOR-I7” value is given as “potential ligands of mOR-I7” at mOR-I7 [2] and “hits” on mOR-I7 [2] (listed as 6-cis-nonenal).

As to `CC(C)=CCCC(C)CC=O` (stereo not shown) [citronellal], the “mOR-I7 activation by cellular cAMP pool” value on mOR-I7 [1] is recorded as “mOR-I7 ligands”. Further, the “known activation of mOR-I7” value at mOR-I7 [3] is listed as “activated specifically”. Besides, the “improvement of hORL-424 activation on addition of bovine olfactory mucus” value with hORL-424 (bovine olfactory mucus in assay buffer vs absence, fluo4, 96-well plate) is “approximately 9 folds”. In addition, the “concentration necessary to reach maximum activation of hORL-424” value in the assay with hORL-424 (conventional assay, no mucus) is reported as “up to 10 mM”. For the same compound, the “concentration sufficient to reach maximum activation of hORL-424” value in the assay with hORL-424 (olfactory mucus added in the assay buffer) is 0.5 mM. At mOR-I7 [2], the “hits / potential ligands” value is “hits”; the “hit / potential ligand of mOR-I7” value was “potential ligands of mOR-I7 and hits”.

For the compound `COCCc1ccc(O)cc1` [4(2-methoxyethyl)phenol], the “hit / potential ligand of mOR-I7” value at mOR-I7 [2] is reported as “potential ligands of mOR-I7”; on mOR-I7 [2] (listed as 4-(2-methoxyethyl)-phenol), “hits”.

For `CC(C)C(=O)OCc1ccc2c(c1)OCO2` [piperonyl isobutyrate], the “mOR-I7 activation by cellular cAMP pool” value at mOR-I7 [1] is given as “did not lead to cAMP synthesis”.

On to `CC(C)=CCCC(C)CCO` (stereo not shown) [citronellol], for which, at mOR-I7 [2], the “ligands of mOR-I7 in two independent calcium flux screenings of 30 odorants” value is listed as “consistent”; the “hit / potential ligand of mOR-I7” value was “potential ligands of mOR-I7 and hits”.

As to `CCCCCCC=O` [heptanal], the “mOR-I7 activation by cellular cAMP pool” value at mOR-I7 [1] was “mOR-I7 ligands”. For the same compound, the “known activation of mOR-I7” value at mOR-I7 [3] is on record as “activated specifically”. On mOR-I7 [2], the “hits / potential ligands” value was “hits” and the “ligands of mOR-I7 in two independent calcium flux screenings of 30 odorants” value is recorded as “consistent”.

On to `CCCCCCCO` [heptanol], for which, on mOR-I7 [2], the “hits / potential ligands” value was “hits”, the “ligands of mOR-I7 in two independent calcium flux screenings of 30 odorants” value was “consistent” and the “hit / potential ligand of mOR-I7” value is listed as “potential ligands of mOR-I7”. Besides, the “hit / potential ligand of mOR-I7” value at mOR-I7 [2] (listed as 1-heptanol) was “hits”.

For the compound `CCCCC(=O)C(C)=O` [2,3 heptanedione], on mOR-I7 [2], the “hits / potential ligands” value is recorded as “hits”; the “ligands of mOR-I7 in two independent calcium flux screenings of 30 odorants” value was “consistent”; the “hit / potential ligand of mOR-I7” value is “potential ligands of mOR-I7 and hits”.

Values taken from US20090136968A1, “Novel in vitro methods for studying receptors recognizing volatile compounds” (Chemcom S. A., priority 2005, published 2009).
